{"source": "patent US5550124A", "about": "“Use of peripheral-type benzodiazpine sites for treatment of CNS trauma or disease” (priority 1991, dated 1996)", "key": {"[1]": {"details": "in vivo; cited from earlier work"}, "[2]": {"assay": "Physical trauma (head injury) model, grip score 18 hours post-injury", "assay_type": "in vivo, mice (male CF-1)", "source_text": "Two tests which can be readily performed are observation of grip score and observation of grip time in injured test animals. Another test for agonist activity is for decrease in mortality caused by the CNS injury. Mice can be treated to simulate CNS injury by a variety of methods: they can be deprived of oxygen by administration of KCN (Nauquier, A., et al., Arch. Int. Pharmacodyn., 249:330 (1981)) or by temporary tying-off of the carotid artery (Braughler, J. M. and Lainer, M. J., \"The effects of large doses of methylprednisolone on neurologic recovery and survival in the Mongolian gerbil following three hours of unilateral carotid occlusion,\" CNS Trauma, 3:153-162 (1986)). Alternatively, blows can be administered to the head or the spinal cord of the test animal.\nThe following protocol was used:\nThe compound to be tested was weighed and suspended in a polyethylated castor oil solution (\"Cremophore\") (21% Cremaphore, 3% ethanol in 0.9% saline). The concentration of the solution was then adjusted for administration at a dose of 0.01 cc/gm body weight. For example, for a dose of 10 mg/Kg, the solution was made 1.0 mg/cc, and a 23 g mouse would receive 0.23 cc of this solution. The solution was sonicated for approximately 90 minutes, or until the compound is dissolved.\nMale CF-1 mice (15-25 gm) were weighed and marked for identification purposes. Each individual mouse was restrained by grasping the dorsal skin of the neck until the mouse was still. An impounder was used to administer the trauma. The impounder consists of a weight suspended over the animal's head at a height sufficient to produce significant injury when dropped, and a means for immobilizing the animal (in this case, room to hold the animal in place). […] 62:882-887, 883. The mouse was positioned properly under the impounder, and the weight was released from its preset height (11 CM).\nImmediately following injury, the mouse was placed under a heat lamp. At various times after injury, the drug was administered intravenously at the specified dose. The time of injury and the time of injection were recorded.\nB) Measurement of Grip Score\nEach mouse was evaluated 18 hours post-injury for neurological deficit. The delay of 18 hours provided time for any sedative effects of the compound to wear off. It also provided time for healing to occur. Mortality was also noted. A standard grip test, as described in Hall et al., J. Neurosurg. 68:456-461 (1988), was used. The apparatus consisted of a taut string suspended between two uprights, 60 cm in length and 40 cm above a padded table.\nEach mouse was picked up by the tail and placed on the string. […] The tail was then released. Grip score was recorded based on the mouse's performance while on the string. The following criteria were used (taken from Hall, E. D., J. Neurosurg. 62:882-887 (1985)):\nC) Statistical Analysis Results of the above test were analyzed for statistical significance using the Mann-Whitney U test. See R. V. Tallarida & R. B. Murray, MANUAL OF PHARMACOLOGIC CALCULATIONS WITH COMPUTER PROGRAMS, Springer-Verlag, N.Y., pp. 57-59 (1981). This test was used to compare each set of grip scores for a particular dose of a particular compound against the grip scores for the control group."}, "[3]": {"assay_type": "in vivo, mice (male CF-1)"}, "[4]": {"target": "T1, peripheral-type BZ receptors (Rattus norvegicus, UniProt P16257)", "T1 construct": "displacement of ^3 H-RO5-4864 in brain homogenates; from tissue; host or cells: brain homogenates", "assay": "Competitive binding assay, displacement of 3H-Ro5-4864 in brain homogenates", "source_text": "Sprengel, R., et al., \"Molecular cloning and expression of cDNA encoding a peripheral-type benzodiazepine receptor,\" J. Biol. Chem., 264:20415-20421 (1989).\nSome of these compounds were further tested in in vivo studies."}}}
{"smiles": "CCC(C)N(C)C(=O)c1cc2ccccc2c(-c2ccccc2Cl)n1", "note": "(stereo not shown) [PK 11195, N-methyl-N-1-(1-methyl,propyl)(2-chlorophenyl)-3-isoquinoline carboxamide]", "values": [{"measurement": "effect in cardiac ischemia", "setting": "[1]", "result": "ineffective in treating cardiac ischemia"}, {"measurement": "grip score 18 hours post trauma (in words)", "setting": "[2]; 0.1 mg/kg i.v., FIG. 1", "result": "statistically significant increase in the grip score"}, {"measurement": "neurological deficit score (grip score)", "setting": "[2]; 1 mg/kg i.v., 5 min post injury, control 2.06 ± 0.23, P<0.05", "result": "3.07 ± 0.47"}, {"measurement": "neurological deficit score (grip score)", "setting": "[2]; 1 mg/kg i.v., 30 min post injury, control 1.54 ± 0.43, P<0.004", "result": "3.53 ± 0.36"}, {"measurement": "neurological deficit score (grip score)", "setting": "[2]; 1 mg/kg i.v., 60 min post injury, control 2.54 ± 0.51", "result": "1.93 ± 0.42"}, {"measurement": "neurological deficit score (grip score)", "setting": "[2]; 10 mg/kg i.v., 5 min post injury, control 2.06 ± 0.23, P<0.05", "result": "2.89 ± 0.40"}, {"measurement": "neurological deficit score (grip score)", "setting": "[2]; 10 mg/kg i.v., 30 min post injury, control 1.56 ± 0.50", "result": "2.53 ± 0.40"}, {"measurement": "neurological deficit score (grip score)", "setting": "[2]; 10 mg/kg i.v., 60 min post injury, control 1.38 ± 0.60, P<0.03", "result": "2.62 ± 0.40"}, {"measurement": "grip score versus controls (in words)", "setting": "[2]; 10 mg/kg, administered up to 1 hour post-injury", "result": "statistically significant increase in grip score"}, {"measurement": "effectiveness in treatment of CNS trauma/damage (in words)", "setting": "[2]; grip score 18 h post trauma, FIGS. 1-8", "result": "effective"}, {"measurement": "percent survival (in words)", "setting": "[3]; after KCN, increasing dose of compound, FIG. 10", "result": "increasing the dose of the compound increases the percent survival"}, {"measurement": "protection against KCN mortality (in words)", "setting": "[3]; varied KCN dose, FIG. 11", "result": "protect against higher doses of KCN"}, {"measurement": "binding affinity to peripheral-type BZ sites (in words)", "setting": "[4]", "result": "high degree of affinity"}]}
